Results as given in US12029715B2, “Precursor compounds for providing retinoids of the vitamin A5 pathway and uses thereof” (UNIVERSITY OF DEBRECEN, priority 2015, dated 2024).
Entries after “also recorded” stand apart in the source; their conditions may differ.

How the values were obtained:
[1] = tested on: Rbp1−/−, Rxrγ−/− and WT mice; assay: Forced swim test after acute treatment; format: in vivo, mouse; conditions: for immobility (despair) in the forced swim test: acute i.p. treatment 5-6 h before the test
Experimental: (§1) The forced swim paradigm was carried out between 1 pm and 4 pm in a 3-litre glass beaker half-filled with water at 22-23° C. (the water depth was 17 cm). All mice were tested only once in this task. To this end, each mouse was lowered gently into the water and the time of immobility was scored during a 6-minute testing period. The mouse was judged immobile when it floated in an upright position and made only small movements to keep its head above the water. After 6 min, the mouse was taken out of the water, left to dry under a red light lamp and returned to its home cage. The immobility scores of each animal were used as an index of despair behavior.
Vehicle treatments consisted of 3% ethanol and 3% DMSO solution in sunflower oil. Treatments were administered by intraperitoneal injections at volume/weight ratio 3 ml/kg between 8-10 am and 5-6 h before the test as previously validated (Wietrzych-Schindler M, 2011).
as §1, with “paradigm (Dalvi and Lucki, 1999)” for “paradigm”, “2-litre” for “3-litre”

C57BL/6N mice = assay: Chronic social defeat stress model, forced swim test; format: in vivo, mouse
Experimental: as §1
Social defeat stress procedure was a modified version of the protocol previously described (Berton, McClung et al. 2006). C57BL/6N mice were defeated chronically for 10 consecutive days. Every day they were exposed to the physical contact with an unfamiliar CD1 aggressor in its home cage for maximal interaction time of 5 minutes. After each session of physical stress, C57BL/6N and CD1 mice were separated by a perforated wall and maintained in sensory contact for 24 h. After the last session of stress, mice were transferred into new cages and housed separately throughout the behavioral tests period. C57BL/6N control mice, similarly to the experimental animals, were housed two per cage separated by a metal perforated wall. Every day, they were exposed to the physical contact for 5 minutes.
For behavioral analysis, 9CDHROL and 9CDHBC were dissolved in ethanol, and then mixed with sunflower oil, so that the final solution contained 3% ethanol. Vehicle treatments consisted of 3% ethanol solution in sunflower oil. For memory studies treatments with 9CDHRA were administered by intraperitoneal injections at volume/weight ratio 3 ml/kg at 7 am and 7 hours before the beginning of testing. For tests with animal model of chronic social defeat, different treatments were administered by intraperitoneal injections at volume/weight ratio 3 ml/kg at 10 mg/kg for each substance between 5-6 pm every second day of stress protocol immediately after the stress session starting from day 1 of the stress protocol.
as §1, with “paradigm (Dalvi and Lucki, 1999)” for “paradigm”, “2-litre” for “3-litre”
Social defeat stress procedure was a modified version of the protocol previously described (Berton et al. 2006). C57BL/6N mice were defeated chronically for 10 consecutive days. Every day they were exposed to the physical contact with an unfamiliar CD1 aggressor in its home cage for maximal interaction time of 5 minutes. After each session of physical stress, C57BL/6N and CD1 mice were separated by a perforated wall and maintained in sensory contact for 24 h. After the last session of stress, mice were transferred into new cages and housed separately throughout the behavioral tests period. […]

[2] = tested on: human oligodendrocytes cell cultures; assay: Metabolic conversion in human oligodendrocytes cell culture (HPLC-MS); format: in vitro ADME; conditions: for 9CDHRA levels in cells after treatment (metabolism / accumulation): 10^−6M, n=3
In short: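 Cultured human oligodendrocytes at 80% confluency were treated with each retinoid or carotenoid at 10^−6 M for 18 h, with ethanol vehicle as control. Harvested cells were analysed by HPLC-MS for 9CDHRA levels, n=3 with standard deviation.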

[3] = tested on: oligodendrocytes cell line 158N; assay: Metabolic conversion in mouse oligodendrocytes cell culture (LC-MS); format: in vitro ADME; conditions: for 9CDHRA levels in cells after treatment: 10^−5M for 18 h; for ATROL levels in cells after treatment: 10^−6M
In short: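 Mouse 158N oligodendrocytes at 70–80% confluency were treated with retinoid precursors or esters, with ethanol as vehicle, at 10^−6 M in one variant and from a 10^−2 M ethanol solution in the other. Cells were harvested after 18 h under limited light. Metabolites were analysed by LC-MS.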

[4] = tested on: differentiating monocyte-derived human dendritic cells; assay: DNA microarray in differentiating monocyte-derived dendritic cells; format: cell-based
Experimental: The generation and transcriptional analysis of differentiating DCs were performed as described previously [Szeles L et al. 2010]. Microarray data were deposited into the Gene Expression Omnibus database under accession no. GSE48573.
The generation and analysis of differentiating DCs were performed as described previously [Szeles L et al. 2010] with minor modifications. Briefly, human monocytes were isolated from healthy volunteer's buffy coat, obtained with a Regional Ethical Board permit from the Regional Blood Bank and isolated by Ficoll gradient centrifugation followed by immunomagnetic cell separation, and were cultured in the presence of GM-CSF and IL-4. Differentiating DCs were stimulated 18 h after […] by various agonists for 12 h. The ligands were used in the following concentrations: 10 μM (R)-9CDHRA, 10 μM (S)-9CDHRA, 1 μM 9cisRA, 100 nM LG100268, 1 μM GW3965, 1 μM Rosiglitazone (RSG), 1 μM GW1516, 100 nM AM580. Experiments were performed in biological triplicates. Samples were processed and hybridized to Human Genome U133 Plus 2.0 Arrays. Data were analysed using to GeneSpring 12.6.1 software. In detail, normalization was performed using RMA summarization algorithm. […] Microarray data were deposited into the Gene Expression Omnibus database under accession no. GSE48573.

**Q.** How did the “immobility (despair) in the forced swim test” value ([1]; Rbp1−/− mice) turn out when `CC1(C)CCC(C)(C)c2cc(C3(c4ccc(C(=O)O)cc4)OCCO3)ccc21` [UVI2108, reference compound] was run?
**A.** The value was “reduced significantly immobility time”.

**Q.** What about the “immobility time in the forced swim test, compared with 9CDHRA” value (C57BL/6N mice; stressed mice, UVI2108 during the stress protocol) of the same molecule?
**A.** The value was “comparable”.

**Q.** For `CC1=C(/C=C/C(C)=C\C=C\C(C)CCO)C(C)(C)CCC1` (stereo not drawn) [9CDHROL, 9-cis-13,14-dihydroretinol], which “9CDHRA levels in cells after treatment (metabolism / accumulation)” value [2] is on record?
**A.** The value was “moderately but significantly metabolized”.

**Q.** And the “precursor substrate of 9CDHROL” value ([2]; in vitro)?
**A.** The value was “excellent precursor substrates”.

**Q.** And the “immobility time in the forced swim test” value (C57BL/6N mice; stressed mice, 10 mg/kg i.p. every second day of stress protocol, 10 mg/kg)?
**A.** Its value is “decreased such immobility; also recorded: efficiently normalised immobility time”.

**Q.** And the “9CDHRA levels in cells after treatment” value [3]?
**A.** Its value is “strong increase”.

**Q.** And the “ATROL levels in cells after treatment” value [3]?
**A.** The value was “a low conversion or induced increase”.

**Q.** What about the “9CDHROL levels in cells after treatment” value ([3]; 10^−6 M, 18 hours) of the same molecule?
**A.** The value was “increases; also recorded: excellent/strongly”.

**Q.** What about the “conversion to 9CDHRA” value ([3]; data not shown) of the same molecule?
**A.** Its value is “excellent precursor”.

**Q.** With `CC(C=CC1=C(C)CCCC1(C)C)=CC=CC(C)CC(=O)O` (stereo not drawn) [9CDHRA, 9-cis-13,14-dihydroretinoic acid] as the molecule, how does the “expression of genes induced by AM580 (RAR-RXR target genes)” value [4] read?
**A.** The value was “also induced”.

**Q.** And the “transcripts regulated by LG268 (RXR-specific agonist) also regulated” value ([4]; 72 LG268 transcriptional targets)?
**A.** The value was 68 out of 72.

**Q.** What about the “9CDHRA levels in cells after treatment (metabolism / accumulation)” value [2] of the same molecule?
**A.** The value was “strong accumulation”.

**Q.** What about the “immobility time versus stressed, nontreated mice” value (C57BL/6N mice; 3 mg/kg) of the same molecule?
**A.** The value was “displayed anti-despair effects”.

**Q.** What about the “immobility time in the forced swim test” value (C57BL/6N mice; stressed mice, 1 or 3 mg/kg during the stress protocol) of the same molecule?
**A.** The value was “decreased such immobility in stressed mice in a dose dependently manner; also recorded: efficiently normalized immobility time”.

**Q.** And the “9CDHRA levels in cells after treatment” value [3]?
**A.** Its value is “very strong increase”.

**Q.** And the “ATROL levels in cells after treatment” value [3]?
**A.** Its value is “a low conversion or induced increase”.

**Q.** How did the “overlap in transcriptional changes with 9CRA” value [4] turn out when `CC1=C(/C=C/C(C)=C\C=C\[C@H](C)CC(=O)O)C(C)(C)CCC1` [(R)-9CDHRA, (9Z,13R)-13,14-Dihydroretinoic Acid] was run?
**A.** Its value is “about 80%”.

**Q.** And the “share of all transcripts regulated by 9CRA that are similarly regulated by (R)-9CDHRA” value [4]?
**A.** Its value is 85%.

**Q.** And the “transcripts similarly regulated by both (R)-9CDHRA and 9CRA” value ([4]; 10 μM (R)-9CDHRA, 1 μM 9CRA)?
**A.** Its value is 384.

**Q.** What about the “number of transcripts regulated” value ([4]; 10 μM (R)-9CDHRA, 1 μM 9CRA, 12 h, FC>2) of the same molecule?
**A.** Its value is 518.

**Q.** And the “expression of genes that are direct targets of RXR permissive heterodimers (LXR-RXR, PPAR-RXR) and RAR-RXR” value ([4]; 9CDHRA 10 μM, 9CRA 1 μM, LG268 100 nM, GW3965 1 μM, RSG 1 μM, GW1516 1 μM, AM580 100 nM)?
**A.** The value was “induced the expression of genes; also recorded: induce the expression of many genes”.

**Q.** And the “immobility (despair) in the forced swim test” value ([1]; Rbp1−/− mice)?
**A.** Its value is “reduce despair behavior; also recorded: reduced in dose dependent manner immobility”.

**Q.** And the “dose attaining maximal effect on immobility in the forced swim test” value ([1]; Rbp1−/− mice, acute treatment)?
**A.** Its value is 1 mg/kg.

**Q.** And the “immobility time in the forced swim test” value ([1]; Rxrγ−/− mice, 2 mg treatment)?
**A.** Its value is 120 ± 25 s.
